Experimental data published in ChEMBL document CHEMBL1240428, “Conventional and microwave assisted synthesis of some new N-[(4-oxo-2-substituted aryl -1, 3-thiazolidine)-acetamidyl]-5-nitroindazoles and its antimicrobial activity” (2010).
In brackets after ≈: the same amount, converted by molar mass.

What follows are compounds tested on Escherichia coli (assay: Antibacterial activity against Escherichia coli at 50 ug/mL). Details: read-out: IZ.
Type: functional

| Structure (SMILES) | zone of inhibition at 50 µg/mL |
| --- | --- |
| O=C(Cn1ncc2cc([N+](=O)[O-])ccc21)NN1C(=O)CSC1c1ccccc1Cl (centres undefined) | 21.4 mm |
| O=C(Cn1ncc2cc([N+](=O)[O-])ccc21)NN1C(=O)CSC1c1ccc(Cl)cc1 (centres undefined) | 22.3 mm |
| O=C(Cn1ncc2cc([N+](=O)[O-])ccc21)NN1C(=O)CSC1c1ccccc1Br (centres undefined) | 19.2 mm |

Each compound was assayed on Escherichia coli (assay: Antibacterial activity against Escherichia coli at 100 ug/mL). Details: read-out: IZ.
Type: functional

| Structure (SMILES) | zone of inhibition at 100 µg/mL |
| --- | --- |
| O=C(Cn1ncc2cc([N+](=O)[O-])ccc21)NN1C(=O)CSC1c1ccccc1Cl (centres undefined) | 24.5 mm |
| O=C(Cn1ncc2cc([N+](=O)[O-])ccc21)NN1C(=O)CSC1c1ccc(Cl)cc1 (centres undefined) | 25.6 mm |
| O=C(Cn1ncc2cc([N+](=O)[O-])ccc21)NN1C(=O)CSC1c1ccccc1Br (centres undefined) | 21.8 mm |

Each compound was assayed on Bacillus subtilis (assay: Antibacterial activity against Bacillus subtilis at 50 ug/mL). Details: read-out: IZ.
Type: functional

| Structure (SMILES) | zone of inhibition at 50 µg/mL |
| --- | --- |
| O=C(Cn1ncc2cc([N+](=O)[O-])ccc21)NN1C(=O)CSC1c1ccccc1Cl (centres undefined) | 18 mm |
| O=C(Cn1ncc2cc([N+](=O)[O-])ccc21)NN1C(=O)CSC1c1ccc(Cl)cc1 (centres undefined) | 18.8 mm |
| O=C(Cn1ncc2cc([N+](=O)[O-])ccc21)NN1C(=O)CSC1c1ccccc1Br (centres undefined) | 16 mm |

Each compound was assayed on Bacillus subtilis (assay: Antibacterial activity against Bacillus subtilis at 100 ug/mL). Details: read-out: IZ.
Type: functional

| Structure (SMILES) | zone of inhibition at 100 µg/mL |
| --- | --- |
| O=C(Cn1ncc2cc([N+](=O)[O-])ccc21)NN1C(=O)CSC1c1ccccc1Cl (centres undefined) | 22.6 mm |
| O=C(Cn1ncc2cc([N+](=O)[O-])ccc21)NN1C(=O)CSC1c1ccc(Cl)cc1 (centres undefined) | 23.7 mm |
| O=C(Cn1ncc2cc([N+](=O)[O-])ccc21)NN1C(=O)CSC1c1ccccc1Br (centres undefined) | 20.5 mm |

Each compound was assayed on Aspergillus flavus (assay: Antifungal activity against Aspergillus flavus at 50 ug/mL). Details: read-out: IZ.
Type: functional

| Structure (SMILES) | zone of inhibition at 50 µg/mL |
| --- | --- |
| O=C(Cn1ncc2cc([N+](=O)[O-])ccc21)NN1C(=O)CSC1c1ccccc1Cl (centres undefined) | 21.3 mm |
| O=C(Cn1ncc2cc([N+](=O)[O-])ccc21)NN1C(=O)CSC1c1ccc(Cl)cc1 (centres undefined) | 22.3 mm |
| O=C(Cn1ncc2cc([N+](=O)[O-])ccc21)NN1C(=O)CSC1c1ccccc1Br (centres undefined) | 18.8 mm |

What follows are compounds tested on Aspergillus flavus (assay: Antifungal activity against Aspergillus flavus at 100 ug/mL). Details: read-out: IZ.
Type: functional

| Structure (SMILES) | zone of inhibition at 100 µg/mL |
| --- | --- |
| O=C(Cn1ncc2cc([N+](=O)[O-])ccc21)NN1C(=O)CSC1c1ccccc1Cl (centres undefined) | 24 mm |
| O=C(Cn1ncc2cc([N+](=O)[O-])ccc21)NN1C(=O)CSC1c1ccc(Cl)cc1 (centres undefined) | 25 mm |
| O=C(Cn1ncc2cc([N+](=O)[O-])ccc21)NN1C(=O)CSC1c1ccccc1Br (centres undefined) | 21.7 mm |

The compounds below were run on Penicillium citrinum (assay: Antifungal activity against Penicillium citrinum at 50 ug/mL). Details: read-out: IZ.
Type: functional

| Structure (SMILES) | zone of inhibition at 50 µg/mL |
| --- | --- |
| O=C(Cn1ncc2cc([N+](=O)[O-])ccc21)NN1C(=O)CSC1c1ccccc1Cl (centres undefined) | 19.4 mm |
| O=C(Cn1ncc2cc([N+](=O)[O-])ccc21)NN1C(=O)CSC1c1ccc(Cl)cc1 (centres undefined) | 20.2 mm |
| O=C(Cn1ncc2cc([N+](=O)[O-])ccc21)NN1C(=O)CSC1c1ccccc1Br (centres undefined) | 17.2 mm |

These compounds were tested on Penicillium citrinum (assay: Antifungal activity against Penicillium citrinum at 100 ug/mL). Details: read-out: IZ.
Type: functional

| Structure (SMILES) | zone of inhibition at 100 µg/mL |
| --- | --- |
| O=C(Cn1ncc2cc([N+](=O)[O-])ccc21)NN1C(=O)CSC1c1ccccc1Cl (centres undefined) | 23.5 mm |
| O=C(Cn1ncc2cc([N+](=O)[O-])ccc21)NN1C(=O)CSC1c1ccc(Cl)cc1 (centres undefined) | 24.4 mm |
| O=C(Cn1ncc2cc([N+](=O)[O-])ccc21)NN1C(=O)CSC1c1ccccc1Br (centres undefined) | 21 mm |

What follows are compounds tested on Fusarium oxysporum (assay: Antifungal activity against Fusarium oxysporum at 50 ug/mL). Details: read-out: IZ.
Type: functional

| Structure (SMILES) | zone of inhibition at 50 µg/mL |
| --- | --- |
| O=C(Cn1ncc2cc([N+](=O)[O-])ccc21)NN1C(=O)CSC1c1ccccc1Cl (centres undefined) | 22 mm |
| O=C(Cn1ncc2cc([N+](=O)[O-])ccc21)NN1C(=O)CSC1c1ccc(Cl)cc1 (centres undefined) | 22.9 mm |
| O=C(Cn1ncc2cc([N+](=O)[O-])ccc21)NN1C(=O)CSC1c1ccccc1Br (centres undefined) | 19.8 mm |

Each compound was assayed on Fusarium oxysporum (assay: Antifungal activity against Fusarium oxysporum at 100 ug/mL). Details: read-out: IZ.
Type: functional

| Structure (SMILES) | zone of inhibition at 100 µg/mL |
| --- | --- |
| O=C(Cn1ncc2cc([N+](=O)[O-])ccc21)NN1C(=O)CSC1c1ccccc1Cl (centres undefined) | 25 mm |
| O=C(Cn1ncc2cc([N+](=O)[O-])ccc21)NN1C(=O)CSC1c1ccc(Cl)cc1 (centres undefined) | 25.8 mm |
| O=C(Cn1ncc2cc([N+](=O)[O-])ccc21)NN1C(=O)CSC1c1ccccc1Br (centres undefined) | 22.6 mm |

What follows are compounds tested on Escherichia coli (assay: Antibacterial activity against Escherichia coli). Details: not given.
Type: functional

| Structure (SMILES) | MIC |
| --- | --- |
| O=C(Cn1ncc2cc([N+](=O)[O-])ccc21)NN1C(=O)CSC1c1ccccc1Cl (centres undefined) | 13 µg/mL (≈ 30.1 µM) |
| O=C(Cn1ncc2cc([N+](=O)[O-])ccc21)NN1C(=O)CSC1c1ccc(Cl)cc1 (centres undefined) | 13 µg/mL (≈ 30.1 µM) |
| O=C(Cn1ncc2cc([N+](=O)[O-])ccc21)NN1C(=O)CSC1c1ccccc1Br (centres undefined) | 17 µg/mL (≈ 35.7 µM) |

These compounds were tested on Bacillus subtilis (assay: Antibacterial activity against Bacillus subtilis). Details: not given.
Type: functional

| Structure (SMILES) | MIC |
| --- | --- |
| O=C(Cn1ncc2cc([N+](=O)[O-])ccc21)NN1C(=O)CSC1c1ccccc1Cl (centres undefined) | 17 µg/mL (≈ 39.4 µM) |
| O=C(Cn1ncc2cc([N+](=O)[O-])ccc21)NN1C(=O)CSC1c1ccc(Cl)cc1 (centres undefined) | 16 µg/mL (≈ 37 µM) |
| O=C(Cn1ncc2cc([N+](=O)[O-])ccc21)NN1C(=O)CSC1c1ccccc1Br (centres undefined) | 20 µg/mL (≈ 42 µM) |

What follows are compounds tested on Aspergillus flavus (assay: Antifungal activity against Aspergillus flavus). Details: not given.
Type: functional

| Structure (SMILES) | MIC |
| --- | --- |
| O=C(Cn1ncc2cc([N+](=O)[O-])ccc21)NN1C(=O)CSC1c1ccccc1Cl (centres undefined) | 14 µg/mL (≈ 32.4 µM) |
| O=C(Cn1ncc2cc([N+](=O)[O-])ccc21)NN1C(=O)CSC1c1ccc(Cl)cc1 (centres undefined) | 13 µg/mL (≈ 30.1 µM) |
| O=C(Cn1ncc2cc([N+](=O)[O-])ccc21)NN1C(=O)CSC1c1ccccc1Br (centres undefined) | 17 µg/mL (≈ 35.7 µM) |

The compounds below were run on Penicillium citrinum (assay: Antifungal activity against Penicillium citrinum). Details: not given.
Type: functional

| Structure (SMILES) | MIC |
| --- | --- |
| O=C(Cn1ncc2cc([N+](=O)[O-])ccc21)NN1C(=O)CSC1c1ccccc1Cl (centres undefined) | 17 µg/mL (≈ 39.4 µM) |
| O=C(Cn1ncc2cc([N+](=O)[O-])ccc21)NN1C(=O)CSC1c1ccc(Cl)cc1 (centres undefined) | 17 µg/mL (≈ 39.4 µM) |
| O=C(Cn1ncc2cc([N+](=O)[O-])ccc21)NN1C(=O)CSC1c1ccccc1Br (centres undefined) | 20 µg/mL (≈ 42 µM) |

Each compound was assayed on Fusarium oxysporum (assay: Antifungal activity against Fusarium oxysporum). Details: not given.
Type: functional

| Structure (SMILES) | MIC |
| --- | --- |
| O=C(Cn1ncc2cc([N+](=O)[O-])ccc21)NN1C(=O)CSC1c1ccccc1Cl (centres undefined) | 11 µg/mL (≈ 25.5 µM) |
| O=C(Cn1ncc2cc([N+](=O)[O-])ccc21)NN1C(=O)CSC1c1ccc(Cl)cc1 (centres undefined) | 11 µg/mL (≈ 25.5 µM) |
| O=C(Cn1ncc2cc([N+](=O)[O-])ccc21)NN1C(=O)CSC1c1ccccc1Br (centres undefined) | 13 µg/mL (≈ 27.3 µM) |

The compounds below were run on Salmonella typhi (assay: Antibacterial activity against Salmonella typhi). Details: not given.

| Structure (SMILES) | MIC |
| --- | --- |
| O=C(Cn1ncc2cc([N+](=O)[O-])ccc21)NN1C(=O)CSC1c1ccccc1Cl (centres undefined) | 15 µg/mL (≈ 34.7 µM) |
| O=C(Cn1ncc2cc([N+](=O)[O-])ccc21)NN1C(=O)CSC1c1ccc(Cl)cc1 (centres undefined) | 15 µg/mL (≈ 34.7 µM) |
| O=C(Cn1ncc2cc([N+](=O)[O-])ccc21)NN1C(=O)CSC1c1ccccc1Br (centres undefined) | 17 µg/mL (≈ 35.7 µM) |

Each compound was assayed on Salmonella typhi (assay: Antibacterial activity against Salmonella typhi at 50 ug/mL). Details: read-out: IZ.

| Structure (SMILES) | zone of inhibition at 50 µg/mL |
| --- | --- |
| O=C(Cn1ncc2cc([N+](=O)[O-])ccc21)NN1C(=O)CSC1c1ccccc1Cl (centres undefined) | 19.2 mm |
| O=C(Cn1ncc2cc([N+](=O)[O-])ccc21)NN1C(=O)CSC1c1ccc(Cl)cc1 (centres undefined) | 20 mm |
| O=C(Cn1ncc2cc([N+](=O)[O-])ccc21)NN1C(=O)CSC1c1ccccc1Br (centres undefined) | 17.2 mm |

What follows are compounds tested on Salmonella typhi (assay: Antibacterial activity against Salmonella typhi at 100 ug/mL). Details: read-out: IZ.

| Structure (SMILES) | zone of inhibition at 100 µg/mL |
| --- | --- |
| O=C(Cn1ncc2cc([N+](=O)[O-])ccc21)NN1C(=O)CSC1c1ccccc1Cl (centres undefined) | 23 mm |
| O=C(Cn1ncc2cc([N+](=O)[O-])ccc21)NN1C(=O)CSC1c1ccc(Cl)cc1 (centres undefined) | 23.9 mm |
| O=C(Cn1ncc2cc([N+](=O)[O-])ccc21)NN1C(=O)CSC1c1ccccc1Br (centres undefined) | 21 mm |
